Where two headings read alike, the source gives them in different places.
Key:
[1] = tested on: T-cell factor (TCF)-luciferase reporter using Wnt pathway as index; test: Inhibitory activity against TCF-luciferase reporter using Wnt pathway as index (DLD-1/TCF-Luc cells); format: cell-based, human; conditions: Homo sapiens, read-out: Inhibition ratio (%) at 1 μmol/L
Protocol: Test Example 1: Inhibitory Activity Against T-Cell Factor (TCF)-Luciferase Reporter Using Wnt Pathway as Index
The inhibitory activity of test compounds against Wnt pathway was evaluated by the following method.
A human colorectal adenocarcinoma cell line DLD-1 (Japanese Collection of Research Bioresources) was cultured in RPMI-1640 medium (Gibco/Life Technologies, Inc.) containing 10% fetal bovine serum (Gibco/Life Technologies, Inc.), 10 mmol/L of a 4-(2-hydroxyethyl)-1-piperazineethanesulfonic acid (HEPES) buffer solution (Gibco/Life Technologies, Inc.), 1 mmol/L of a sodium pyruvate solution (Gibco/Life Technologies, Inc.), 4.5 g/L of a D-(+)-glucose solution (Sigma-Aldrich, Inc.), 100 units/mL penicillin (Gibco/Life Technologies, Inc.) and 100 μg/mL of streptomycin (Gibco/Life Technologies, Inc.) under the conditions of 37° C. and 5% carbon dioxide gas. The DLD-1 cells were seeded in a 10 cm dish, and 20 μg of a luciferase gene plasmid pGL4.27 having a TCF responsive sequence inserted therein was transfected into the cells using 10 μL of Attractene (Qiagen, Inc.) according to the protocol attached to the product. A stably expressing cell line (DLD-1/TCF-Luc) was selected using […] of hygromycin B (Wako Pure Chemical Industries Ltd.). The DLD-1/TCF-Luc cells were detached with trypsin and seeded in a 384-well plate, and a test compound was added at different concentrations. After 18 hours, the luciferase activity was measured using Steady-Glo™ Luciferase Assay System (Promega, Inc.).
The inhibition ratio was obtained according to the following formula 1. The inhibition ratio (%) of the compound of the present invention at 1 μmol/L against the TCF-luciferase reporter using the Wnt pathway as an index is shown in Table 6. [Math. 1] Inhibition ratio (%)=100−{(luciferase activity when test compound was added)−(luciferase activity of blank)}/{(luciferase activity of control)−(luciferase activity of blank)}×100 Formula 1

tankyrase-2 = molecular target: T1, tankyrase-2 (Homo sapiens, UniProt Q9H2K2); test: Tankyrase-2 enzyme inhibition test (Tankyrase-2 Chemiluminescent Assay Kit); format: biochemical; conditions: autoribosylation of GST-tankyrase-2 fusion protein, chemiluminescence
T1 construct: purchased BPS Bioscience, Inc. 80566
T1 sequence (Q9H2K2 1-1166): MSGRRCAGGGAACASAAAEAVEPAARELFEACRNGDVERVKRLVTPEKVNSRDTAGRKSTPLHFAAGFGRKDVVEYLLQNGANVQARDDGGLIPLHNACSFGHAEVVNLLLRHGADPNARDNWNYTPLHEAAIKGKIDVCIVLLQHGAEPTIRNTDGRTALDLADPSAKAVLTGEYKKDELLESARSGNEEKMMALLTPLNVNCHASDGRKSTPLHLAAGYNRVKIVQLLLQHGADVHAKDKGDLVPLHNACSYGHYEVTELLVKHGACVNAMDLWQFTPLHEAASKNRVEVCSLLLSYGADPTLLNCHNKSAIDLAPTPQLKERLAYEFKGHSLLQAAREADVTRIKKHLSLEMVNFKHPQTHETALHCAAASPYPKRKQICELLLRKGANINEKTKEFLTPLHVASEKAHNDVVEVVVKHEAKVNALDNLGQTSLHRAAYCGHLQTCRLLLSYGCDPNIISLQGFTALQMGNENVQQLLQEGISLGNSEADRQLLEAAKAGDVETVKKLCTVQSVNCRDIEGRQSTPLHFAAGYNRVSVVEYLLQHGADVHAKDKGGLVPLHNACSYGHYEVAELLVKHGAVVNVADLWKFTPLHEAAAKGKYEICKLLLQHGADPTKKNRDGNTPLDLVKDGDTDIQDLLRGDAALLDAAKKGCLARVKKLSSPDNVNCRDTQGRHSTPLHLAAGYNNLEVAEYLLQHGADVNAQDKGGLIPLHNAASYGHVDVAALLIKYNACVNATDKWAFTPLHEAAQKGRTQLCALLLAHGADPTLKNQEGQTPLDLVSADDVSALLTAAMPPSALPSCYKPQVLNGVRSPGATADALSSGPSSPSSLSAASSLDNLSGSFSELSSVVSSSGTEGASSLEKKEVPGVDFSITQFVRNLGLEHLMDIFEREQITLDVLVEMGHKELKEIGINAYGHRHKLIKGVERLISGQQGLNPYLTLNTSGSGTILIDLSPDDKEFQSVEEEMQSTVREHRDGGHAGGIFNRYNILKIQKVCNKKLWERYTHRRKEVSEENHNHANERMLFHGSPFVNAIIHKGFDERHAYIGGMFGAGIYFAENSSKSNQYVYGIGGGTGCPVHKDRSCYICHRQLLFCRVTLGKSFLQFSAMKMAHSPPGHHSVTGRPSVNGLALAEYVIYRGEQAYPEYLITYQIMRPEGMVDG
Protocol: Test Example 2: Tankyrase-2 Enzyme Inhibition Test
The enzyme activity of tankyrase-2 was evaluated using Tankyrase-2 Chemiluminescent Assay Kit (BPS Bioscience, Inc., Catalog No. 80566). The Tankyrase-2 Chemiluminescent Assay Kit is a kit for evaluating the enzyme activity of tankyrase-2 using autoribosylation of glutathione-S-transferase (GST)-tankyrase-2 fusion protein as an index. All the experimental materials except for PBS (PBST) buffer containing phosphate-buffered saline (PBS) and 0.05% Tween 20 are all included in the kit. The GST-tankyrase-2 enzyme diluted with 50 μL of 1× tankyrase buffer was added to the wells of a 96-well plate coated with glutathione. After the plate was left to stand overnight at 4° C., the plate was washed 3 times with the PBST buffer. 150 μL of blocking buffer was added thereto, and the plate was left to stand at room temperature for 30 minutes to block the wells. The plate was washed 3 times with the PBST buffer. Before the ribosylation reaction, an assay mixture containing a biotinylated substrate and a test compound diluted with 1× tankyrase buffer were mixed, whereby a reaction mixture was prepared. In order to start the ribosylation reaction, 50 μL of the reaction mixture was added to the wells. In a blank well, 1× tankyrase buffer was added in place of the reaction mixture containing a biotinylated substrate. The plate was left to stand at 30° C. for 1 hour. After the reaction, the plate was washed 3 times with the PBST buffer. Streptavidin-horseradish peroxidase (HRP) was diluted to 50-fold with the blocking buffer. The diluted streptavidin-HRP was added to the wells, and the plate was left to stand at room temperature for 30 minutes. The plate was washed 3 times with the PBST buffer. Immediately before use, 50 μL of the HRP chemiluminescent substrate A and 50 μL of the HRP chemiluminescent substrate B were mixed and 100 μL of the resulting mixture was added to the wells. The chemiluminescence was measured using a chemiluminescence measuring apparatus. The inhibition ratio was obtained according to the following formula 2. [Math. 2] Inhibition ratio (%)=100−{(chemiluminescence intensity when test compound was added)−(chemiluminescence intensity of blank)}/{(chemiluminescence intensity of control)−(chemiluminescence intensity of blank)}×100 Formula 2

[2] = 1 μmol/L, DLD-1/TCF-Luc cells, luciferase activity after 18 hours

| SMILES | inhibition at 1 µM [1, 2] [%] | Inhibition ratio (%) at 1 μmol/L (tankyrase-2) [%] | inhibition at 1 µM ([1]; DLD-1, 18 h) [%] |
| --- | --- | --- | --- |
| COc1cc2ncnc(N3CCC(CN4Cc5ccccc5N(Cc5ccccc5C(N)=O)C4=O)CC3)c2cc1OC [Compound 1, 2-[(3-{[1-(6,7-Dimethoxyquinazolin-4-yl)piperidin-4-yl]methyl}-2-oxo-3,4-dihydroquinazolin-1(2H)-yl)methyl]benzamide] | 88 | 91 |  |
| COc1cc2ncnc(N3CCC(CN4Cc5ccccc5N(CC5CCCO5)C4=O)CC3)c2cc1OC (stereo not shown) [Compound 2, 3-{[1-(6,7-Dimethoxyquinazolin-4-yl)piperidin-4-yl]methyl}-1-[(tetrahydrofuran-2-yl)methyl]-3,4-dihydroquinazolin-2(1H)-one] | 87 | 91 |  |
| COc1cc2ncnc(N3CCC(CN4Cc5cc(S(C)(=O)=O)ccc5N(Cc5ccccc5C#N)C4=O)CC3)c2cc1OC [Compound 5, 2-[(3-{[1-(6,7-Dimethoxyquinazolin-4-yl)piperidin-4-yl]methyl}-6-(methylsulfonyl)-2-oxo-3,4-dihydroquinazolin-1(2H)-yl)methyl]benzonitrile] | 84 | 94 |  |
| COc1cc2ncnc(N3CCC(CN4Cc5ccccc5N(c5ccc(F)c(C#N)c5)C4=O)CC3)c2cc1OC [Compound 7, 5-(3-{[1-(6,7-Dimethoxyquinazolin-4-yl)piperidin-4-yl]methyl}-2-oxo-3,4-dihydroquinazolin-1(2H)-yl)-2-fluorobenzonitrile] | 76 | 95 |  |
| COc1cc2ncnc(N3CCC(CN4Cc5ccccc5N(c5cccc([N+](=O)[O-])c5)C4=O)CC3)c2cc1OC [Compound 8, 3-{[1-(6,7-Dimethoxyquinazolin-4-yl)piperidin-4-yl]methyl}-1-(3-nitrophenyl)-3,4-dihydroquinazolin-2(1H)-one] |  | 90 | 73 |
| COc1cc2ncnc(N3CCC(CN4Cc5ccccc5N(c5ccnc(C#N)c5)C4=O)CC3)c2cc1OC [Compound 9, 4-(3-{[1-(6,7-Dimethoxyquinazolin-4-yl)piperidin-4-yl]methyl}-2-oxo-3,4-dihydroquinazolin-1(2H)-yl)picolinonitrile] |  | 91 | 74 |
| COc1cc2ncnc(N3CCC(CN4Cc5ccccc5N(c5c[nH]c(=O)c(C#N)c5)C4=O)CC3)c2cc1OC [Compound 12, 5-(3-{[1-(6,7-Dimethoxyquinazolin-4-yl)piperidin-4-yl]methyl}-2-oxo-3,4-dihydroquinazolin-1(2H)-yl)-2-oxo-1,2-dihydropyridine-3-carbonitrile] | 80 | 88 |  |
| COc1cc2ncnc(N3CCC(CN4Cc5ccccc5N(c5cccc(S(N)(=O)=O)c5)C4=O)CC3)c2cc1OC [Compound 13, 3-(3-{[1-(6,7-Dimethoxyquinazolin-4-yl)piperidin-4-yl]methyl}-2-oxo-3,4-dihydroquinazolin-1(2H)-yl)benzenesulfonamide] | 80 | 89 |  |
| COc1cc2ncnc(N3CCC(CN4Cc5ccccc5N(c5ccc(C(=O)O)c(C#N)c5)C4=O)CC3)c2cc1OC [Compound 15, 2-Cyano-4-(3-{[1-(6,7-dimethoxyquinazolin-4-yl)piperidin-4-yl]methyl}-2-oxo-3,4-dihydroquinazolin-1(2H)-yl)benzoic acid] | 84 | 92 |  |
| COc1cc2ncnc(N3CCC(CN4Cc5ccccc5N(C5CCOCC5)C4=O)CC3)c2cc1OC [Compound 16, 3-{[1-(6,7-Dimethoxyquinazolin-4-yl)piperidin-4-yl]methyl}-1-(tetrahydro-2H-pyran-4-yl)-3,4-dihydroquinazolin-2(1H)-one] | 63 | 71 |  |
| COc1cc2ncnc(N3CCC(O)(CN4Cc5ccccc5N(c5ccnc(C#N)c5)C4=O)CC3)c2cc1OC [Compound 18, 4-(3-{[1-(6,7-Dimethoxyquinazolin-4-yl)-4-hydroxypiperidin-4-yl]methyl}-2-oxo-3,4-dihydroquinazolin-1(2H)-yl)picolinonitrile] | 80 | 79 |  |
| COc1cc2ncnc(N3CCC(CN4Cc5ccncc5N(c5ccnc(C#N)c5)C4=O)CC3)c2cc1OC [Compound 21, 4-(3-{[1-(6,7-Dimethoxyquinazolin-4-yl)piperidin-4-yl]methyl}-2-oxo-3,4-dihydropyrido[3,4-d]pyrimidin-1(2H)-yl)picolinonitrile] | 76 | 93 |  |
| COc1cc2ncnc(N3CCC(CN4Cc5cccnc5N(c5ccnc(C#N)c5)C4=O)CC3)c2cc1OC [Compound 22, 4-(3-{[1-(6,7-Dimethoxyquinazolin-4-yl)piperidin-4-yl]methyl}-2-oxo-3,4-dihydropyrido[2,3-d]pyrimidin-1(2H)-yl)picolinonitrile] | 75 | 98 |  |
| COc1cc2ncnc(N3CCC(CN4Cc5nccnc5N(c5ccnc(C#N)c5)C4=O)CC3)c2cc1OC [Compound 24, 4-(3-{[1-(6,7-Dimethoxyquinazolin-4-yl)piperidin-4-yl]methyl}-2-oxo-3,4-dihydropteridin-1(2H)-yl)picolinonitrile] | 86 | 92 |  |
